Entries after “also recorded” stand apart in the source; their conditions may differ.
Key:
[1] = test system: cancer stem cells (BT74, GBM4 and GBM8); settings: neurosphere growth assays; Hu et al. 2012; cited from earlier work
[2] = test system: GBM cell lines SF188, U251, and T98G; assay: Tumor growth inhibition in GBM cell lines (FIG. 29); type: cell-based, human; settings: MGMT negative SF188 and U251, MGMT positive T98G
[3] = test system: progressive secondary brain tumor; assay: Phase I/II dose-escalation study, tumor response in secondary brain tumor patients; type: in vivo, human; settings: n = 6
Text: The methodology of the study reported in this Example is as follows: An open-label, single arm Phase I/II dose-escalation study designed to evaluate the safety, tolerability, pharmacokinetics and anti-tumor activity of dianhydrogalactitol in patients with: (i) histologically confirmed initial diagnosis of primary WHO Grade IV malignant GBM, now recurrent, or (ii) progressive secondary brain tumor, having failed standard brain radiotherapy, and with brain tumor progression after at least one line of systemic therapy. The study utilizes a 3+3 dose escalation design, until the MTD or the maximum specified dose is reached. Patients receive dianhydrogalactitol intravenously at the assigned dose on days 1, 2, and 3 of each 21-day treatment cycle. In Phase II, additional patients will be treated at the MTD (or other selected optimum Phase II dose) to measure tumor responses. All patients enrolled have previously been treated with surgery and/or radiation, if appropriate, and must have failed both bevacizumab and TMZ, unless contraindicated. For these studies, the following is a summary of the inclusion criteria: (1) Patients must be greater than or equal to 18 years old. […]
Enrollment and evaluation of Cohort 7 (40 mg/m^2) is ongoing. […] Tumor volume is assessed during the study based on RANO criteria. […]

[4] = test system: normal human neural stem cells; settings: neurosphere growth assays; Hu et al. 2012; cited from earlier work
[5] = test system: A549 human lung adenocarcinoma xenograft tumors; assay: A549 NSCLC xenograft tumor growth in Rag2 mice; type: in vivo, female Rag2 mice
Procedure: The purpose of the study reported in this Example is to evaluate the activity of dianhydrogalactitol in in vivo models of drug-resistant NSCLC in comparison to other drugs, including cisplatin. Rag2 mice bearing subcutaneous human lung adenocarcinoma xenograft tumors of either TKI-resistant (H1975) or TKI-sensitive (A549) origin were treated.
Two human NSCLC cell lines, A549 (TKI-sensitive) and H1975 (TKI-resistant), were used as xenograft tumor models in female Rag2 mice. The mice were 6 to 8 weeks of age and weighed 18-23 grams. 10 mice were used per group.
Cisplatin was used in normal saline at a dose of 5 mg/kg. Administration was intravenous.
Dianhydrogalactitol was used in 0.9% sodium chloride for injection at 1.5 mg/kg to 6 mg/kg. Administration was intraperitoneal.
Treatment was initiated at a tumor volume of 100 mm^3 to 150 mm^3.
On day 0, tumor cells were implanted subcutaneously into mice in a volume of 50 μL in Matrigel™ using a 28-gauge needle; injection of the tumor cells was in the back of the mice. Mice were randomly assigned to groups based on tumor volume.
Tumor growth was monitored by measuring tumor dimensions with calipers beginning on the first day of treatment. Tumor length and width measurements were obtained each Monday, Wednesday, and Friday. Tumor volumes were calculated according to the equation L×W^2/2 with the length (in mm) being defined as the longer axis of the tumor. Animals were weighed at the time of tumor measurement. Tumors were allowed to grow to a maximum of 800 mm^3 before termination.

[6] = test system: CSC and non-CSC cultures derived from primary GBM tissue; assay: Cell viability (CellTiter-Glo) in primary GBM cultures with or without radiation; type: cell-based, human
Procedure: “GAPDH” refers to glyceraldehyde-3-phosphate dehydrogenase as a control. For the cell cultures, CSCs were cultured in NSA media supplemented with B27, EGF and bFGF. Non-CSCs were grown in DMEM:F12 with 10% FBS. MGMT methylation and protein expression analysis of each culture was characterized. TMZ or VAL-083 was added to the cultures in the indicated concentrations. Depending on the experiment, cells were also irradiated with 2 Gy in a Cesium irradiator. For assays, cell cycle analysis was performed with Propidium Iodide staining and FACs analysis. Cell viability was analyzed with CellTiter-Glo™ and read on a Promega GloMax™. […] In FIG. 4, “1° GBM” refers to primary glioblastoma multiforme cell cultures.
In FIG. 17, TMZ (50 μM) or dianhydrogalactitol (“VAL-083”) (5 μM) were added to primary CSC cultures at various doses with or without irradiation (2 Gy). Shown are cell cycle profile analysis at day 4 post treatment (A,C) and cell viability analysis at day 6 post treatment (B,D) for the paired CSC (A,B) and non-CSC (C,D) 7996 culture.
In FIG. 18, dianhydrogalactitol (“VAL-083”) was added to primary CSC cultures at various doses (1, 2.5 and 5 μM) with or without irradiation (2 Gy). Shown are cell cycle profile analysis at day 4 post treatment (A,C) and cell viability analysis at day 6 post treatment (B,D) for two different patient-derived CSC cultures, 7996 (A,B) and 8565 (C,D).

[7] = dianhydrogalactitol 1.5 mg/kg i.p. (group 3)
[8] = dianhydrogalactitol 3 mg/kg i.p. (group 4)

dianhydrogalactitol
inhibition of growth of cancer stem cells [1]: 80-100%
inhibition of tumor growth compared with TMZ [2]: better than TMZ for inhibiting tumor growth
Tumor Response, Overall ([3]; secondary brain tumors (breast adenocarcinoma 2, small-cell lung carcinoma 3, melanoma 1)): Overall = 17%
Tumor Response, SD (number of patients) ([3]; secondary brain tumors): SD (1)
effect on normal human neural stem cells [4]: minimal effect
day on which a mean tumor volume of 200 mm^3 was observed [5, 7]: 45 days
day on which a mean tumor volume of 400 mm^3 was reached [5, 7]: 67 days
tumor doubling time [5, 7]: 22
number of animals remaining on study on day 70 ([5]; dianhydrogalactitol 1.5 mg/kg i.p. M, W, F for 3 weeks (group 3)): 7/10
tumor growth delay compared to untreated controls ([5]; dianhydrogalactitol 3 mg/kg i.p.): 26 days
day on which a mean tumor volume of 200 mm^3 was observed [5, 8]: 42 days
day on which a mean tumor volume of 400 mm^3 was reached [5, 8]: 81 days
tumor doubling time [5, 8]: 39
number of animals remaining on study on day 70 ([5]; dianhydrogalactitol 3 mg/kg i.p. M, W, F for 3 weeks (group 4)): 6/10
day on which a mean tumor volume of 200 mm^3 was observed ([5]; dianhydrogalactitol 6 mg/kg i.p. (group 5)): 54 days
number of animals remaining on study on day 70 ([5]; dianhydrogalactitol 6 mg/kg i.p. (group 5; stopped after 3 doses)): 8/10
effect in combination with radiation ([6]; 1, 2.5 and 5 μM with or without irradiation (2 Gy), CSC cultures 7996 and 8565): acts as a radiosensitizer in primary CSC cultures; also recorded: potential additive effect of dianhydrogalactitol with radiation
reduction in cell viability with dianhydrogalactitol plus radiation ([6]; 7996 GNS (CSC), low concentration such as 1 μM, radiation): 20%
cell viability in TMZ-resistant cultures ([6]; VAL-083 5 μM, paired CSC and non-CSC 7996 culture, viability day 6 post treatment): decreases cell viability in TMZ-resistant cultures

Source: US20190015379A1, “USE OF DIANHYDROGALACTITOL AND ANALOGS AND DERIVATIVES THEREOF, TOGETHER WITH RADIATION, TO TREAT NON-SMALL-CELL CARCINOMA OF THE LUNG AND GLIOBLASTOMA MULTIFORME AND SUPPRESS PROLIFERATION OF CANCER STEM CELLS” (DelMar Pharmaceuticals, Inc., priority 2014, published 2019)
